According to US7138231B2 (priority 2000, dated 2006):
Entries after “also recorded” stand apart in the source; their conditions may differ.

Key:
[1] = system: HIV-1 protease site-directed mutants (N88S, L63P, V77I, M46L) in resistance test vector; experiment: Phenotypic susceptibility assay of resistance test vectors with site-directed mutations in PR
Description: The resistance test vectors containing a functional luciferase gene cassette were constructed and host cells were transfected with the resistance test vector DNA. […] The resistance test vector viral particles produced by transfecting the resistance test vector DNA into host cells, either in the presence or absence of protease inhibitors, were used to infect target host cells grown either in the absence of NRTI or NNRTI or in the presence of increasing concentrations of the drug. Luciferase activity in infected target host cells in the presence of drug was compared to the luciferase activity in infected target host cells in the absence of drug. […] The IC50 values were determined by plotting percent drug inhibition vs. log10 drug concentration.
Host cells were seeded in 10-cm-diameter dishes and were transfected one day after plating with resistance test vector plasmid DNA and the envelope expression vector. Transfections were performed using a calcium-phosphate co-precipitation procedure. The cell culture media containing the DNA precipitate was replaced with fresh medium, from one to 24 hours, after transfection. Cell culture media containing resistance test vector viral particles was harvested one to four days after transfection and was passed through a 0.45-mm filter before being stored at −80° C. HIV capsid protein (p24) levels in the harvested cell culture media were determined by an EIA method as described by the manufacturer (SIAC; Frederick, Md.). Before infection, target cells (293 and 293/T) were plated in cell culture media. Control infections were performed using cell culture media from mock transfections (no DNA) or transfections containing the resistance test vector plasmid DNA without the envelope expression plasmid. One to three or more days after infection the media was removed and cell lysis buffer (Promega) was added to each well. Cell lysates were assayed for luciferase activity. The inhibitory effect of the drug was determined using the following equation: % luciferase inhibition=[1−(RLUluc[drug]RLUluc)]×100 where RLUluc [drug] is the relative light unit of luciferase activity in infected cells in the presence of drug and RLUluc is the Relative Light Unit of luciferase activity in infected cells in the absence of drug. IC50 values were obtained from the sigmoidal curves that were generated from the data by plotting the percent inhibition of luciferase activity vs. the log10 drug concentration.
Mutations are introduced into the resistance test vector through any of the widely known methods for site-directed mutagenesis. […] A resistance test vector containing the specific mutation or group of mutations are then tested using the phenotypic susceptibility assay described above and the susceptibility profile is compared to that of a genetically defined wild-type (drug susceptible) resistance test vector which lacks the specific mutations.
Resistance test vectors were constructed containing the N88S mutation alone and in combination with other substitutions in PR (L63P, V77I and M46L) known to modulate the HIV susceptibility to PRIs. Mutations were introduced into the resistance test vector using the mega-primer PCR method for site-directed mutagenesis.

[2] = system: HIV-1 patient-derived protease and reverse transcriptase segments (N88S in PR) in resistance test vectors; experiment: Phenotypic drug susceptibility test with resistance test vectors from patient samples; type: cell-based; conditions: for Fold Change vs. reference: N88S
[3] = system: HIV-1 patient viruses with protease L90M; experiment: Phenotypic susceptibility profiles of 333 patient virus samples with L90M (not 30 or 50); type: cell-based
[4] = system: HIV-1 variants with protease substitutions; conditions: cited from earlier work
[5] = system: HIV-1 patient viruses with protease L90M; experiment: Phenotypic susceptibility profiles of 58 patient virus samples with L90M, no other primary mutations; type: cell-based; conditions: for % FC > 2.5: IDV; for % w with IDV FC > 2.5: L90M

For `CC(C)(C)NC(=O)[C@@H]1CN(Cc2cccnc2)CCN1C[C@@H](O)C[C@@H](Cc1ccccc1)C(=O)N[C@H]1c2ccccc2C[C@H]1O` [indinavir], the “change in susceptibility compared to wild type control RTV” value (from here on “change … to wild type control RTV”) ([1]; L63P-N88S-RTV) was “decreased susceptibility”, the “change … to wild type control RTV” value ([1]; L63P-V77I-N88S-RTV) was “decrease in susceptibility; also recorded: resistance” and the “change … to wild type control RTV” value ([1]; M46L-L63P-N88S-RTV) was “slight decrease in susceptibility”. For the same compound, the “change … to wild type control RTV” value ([1]; M46L-L63P-V77I-N88S-RTV) was “decrease in susceptibility”, the “change in susceptibility” value ([2]; patient sample RTV-360) was “decrease” and the “change in susceptibility” value ([2]; patient sample RTV-627) was “decrease”. The “change in susceptibility” value ([2]; patient sample RTV-0732) was “decrease; also recorded: decreased susceptibility”, the “change in susceptibility” value ([2]; patient sample RTV-0910) was “decrease” and the “change in susceptibility” value ([2]; patient sample RTV-1208) was “decrease”. For the same compound, the “change in susceptibility” value ([2]; patient sample RTV-3542) was “decrease”, the “change in susceptibility” value ([2]; patient sample RTV-3654) was “decrease” and the “wt % > 2.5” value ([3]; Indinavir FC>2.5, L90M, position 10 wild type) was 66.7%. For the same compound, the “wt % > 2.5” value ([3]; Indinavir FC>2.5, L90M, position 13 wild type) was 87.1%, the “wt % > 2.5” value ([3]; Indinavir FC>2.5, L90M, position 20 wild type) was 81.2% and the “wt % > 2.5” value ([3]; Indinavir FC>2.5, L90M, position 46 wild type) was 76.3%. For the same compound, the “wt % > 2.5” value ([3]; Indinavir FC>2.5, L90M, position 53 wild type) was 83.2%, the “wt % > 2.5” value ([3]; Indinavir FC>2.5, L90M, position 54 wild type) was 76.0% and the “wt % > 2.5” value ([3]; Indinavir FC>2.5, L90M, position 63 wild type) was 50.0%. The “wt % > 2.5” value ([3]; Indinavir FC>2.5, L90M, position 71 wild type) was 69.0%, the “wt % > 2.5” value ([3]; Indinavir FC>2.5, L90M, position 73 wild type) was 80.6% and the “wt % > 2.5” value ([3]; Indinavir FC>2.5, L90M, position 74 wild type) was 87.0%. The “wt % > 2.5” value ([3]; Indinavir FC>2.5, L90M, position 82 wild type) was 78.3%, the “wt % > 2.5” value ([3]; Indinavir FC>2.5, L90M, position 84 wild type) was 79.0% and the “wt % > 2.5” value ([3]; Indinavir FC>2.5, L90M, position 95 wild type) was 83.5%. The “mt % > 2.5” value ([3]; Indinavir FC>2.5, listed as 90: all samples with L90M) was 84.7%, the “wt % > 10” value ([3]; Indinavir FC>10, L90M, position 10 wild type) was 23.1% and the “wt % > 10” value ([3]; Indinavir FC>10, L90M, position 20 wild type) was 47.2%. For the same compound, the “wt % > 10” value ([3]; Indinavir FC>10, L90M, position 36 wild type) was 48.9%, the “wt % > 10” value ([3]; Indinavir FC>10, L90M, position 46 wild type) was 44.4% and the “wt % > 10” value ([3]; Indinavir FC>10, L90M, position 54 wild type) was 36.3%. For the same compound, the “wt % > 10” value ([3]; Indinavir FC>10, L90M, position 55 wild type) was 51.8%, the “wt % > 10” value ([3]; Indinavir FC>10, L90M, position 62 wild type) was 45.3% and the “wt % > 10” value ([3]; Indinavir FC>10, L90M, position 71 wild type) was 37.0%. For the same compound, the “wt % > 10” value ([3]; Indinavir FC>10, L90M, position 72 wild type) was 50.0%, the “wt % > 10” value ([3]; Indinavir FC>10, L90M, position 74 wild type) was 57.3% and the “wt % > 10” value ([3]; Indinavir FC>10, L90M, position 82 wild type) was 39.9%. For the same compound, the “wt % > 10” value ([3]; Indinavir FC>10, L90M, position 84 wild type) was 46.3%, the “wt % > 10” value ([3]; Indinavir FC>10, L90M, position 85 wild type) was 52.3% and the “wt % > 10” value ([3]; Indinavir FC>10, L90M, position 95 wild type) was 51.6%. For the same compound, the “mt % > 10” value ([3]; Indinavir FC>10, listed as 90: all samples with L90M) was 53.8%, the loss of susceptibility ([4]; mutant HIV-1 clones with mutations at residues 46, 63, and 82) was “fourfold” and the “loss of susceptibility compared with the wild type” value ([4]; selection in MT-4 cells, substitutions at residues 32, 46, 71, and 82) was 6.1 fold. The “% FC > 2.5” value ([5]; L90M + mutation at position 46) was 88%, the “% FC > 2.5” value ([5]; L90M + mutation at position 71) was 89% and the “% FC > 2.5” value ([5]; L90M + mutation at position 71, listed as IDV) was 89%. For the same compound, the “% FC > 2.5” value ([5]; L90M + mutation at position 73) was 89%, the “% FC > 2.5” value ([5]; L90M + mutation at position 73, listed as IDV) was 89% and the “% FC > 2.5” value ([5]; listed as 90: all viruses with L90M) was 69%. The “% w with IDV FC > 2.5” value ([5]; number of secondary mutations 0) was 69%, the “% w with IDV FC > 2.5” value ([5]; number of secondary mutations 1) was 70% and the “% w with IDV FC > 2.5” value ([5]; number of secondary mutations 2) was 70%. The “% w with IDV FC > 2.5” value ([5]; number of secondary mutations 3) was 80%, the “% w with IDV FC > 2.5” value ([5]; number of secondary mutations 4) was 87% and the “% w with IDV FC > 2.5” value ([5]; number of secondary mutations 5) was 100%. For the same compound, the “% w with IDV FC > 2.5” value ([5]; number of secondary mutations 6) was 100%.
With `CC(C)c1nc(CN(C)C(=O)N[C@H](C(=O)N[C@@H](Cc2ccccc2)C[C@H](O)[C@H](Cc2ccccc2)NC(=O)OCc2cncs2)C(C)C)cs1` [ritonavir] the “change … to wild type control RTV” value ([1]; N88S-RTV) was “more susceptible”, the “Fold Change vs. reference” value ([1]; site-directed mutation N88S) was 0.36 fold and the “Fold Change vs. reference” value ([1]; site-directed mutations L63P) was 1.27 fold. The “Fold Change vs. reference” value ([1]; site-directed mutations L63P, N88S) was 0.77 fold, the “Fold Change vs. reference” value ([1]; site-directed mutations L63P, V77I) was 1.73 fold and the “Fold Change vs. reference” value ([1]; site-directed mutations L63P, V77I, N88S) was 1.39 fold. The “Fold Change vs. reference” value ([1]; site-directed mutations M46L, L63P, N88S) was 0.85 fold, the “Fold Change vs. reference” value ([1]; site-directed mutations M46L, L63P, V77I, N88S) was 1.33 fold and the “Fold Change vs. reference” value ([2]; patient sample 360, prior PRI IDV, PR I13V, K20M, M36V, N37A, M46I, I62V, L63P, I93L) was 1.49 fold. The “Fold Change vs. reference” value ([2]; patient sample 627, prior PRI IDV, PR I13I/V, E35D, M46L, L63P, I64V, I73V) was 1.50 fold, the “Fold Change vs. reference” value ([2]; patient sample 0732, prior PRI NFV, PR K14R, I15V, K20T, E35D, M36I, R41K, I62V, L63Q) was 1.72 fold and the “Fold Change vs. reference” value ([2]; patient sample 0910, prior PRI NFV, PR M46I, L63P, V77I, I93I/L) was 1.85 fold. The “Fold Change vs. reference” value ([2]; patient sample 1208, prior PRI NFV, PR I62V, L63P, V77I) was 1.22 fold, the “Fold Change vs. reference” value ([2]; patient sample 3542, prior PRI IDV, PR I13V, K14R, N37D, M46I, L63P, I93L) was 3.36 fold and the “Fold Change vs. reference” value ([2]; patient sample 3654, PR I13V, R41K, M46I, L63P, V77I, I93L) was 1.95 fold. The “change in susceptibility” value ([2]; patient sample RTV-3542) was “decrease”, the “Percent of viruses with indicated primary mutation(s) with reduced susceptibility (fold change in IC50 > 2.5)” value ([3]; L90M) was 93.4% and the “Percent of viruses with indicated primary mutation(s) with reduced susceptibility (fold change in IC50 > 10)” value ([3]; L90M) was 66.1%. For the same compound, the reduction in sensitivity ([4]; I84V substitution) was 10 fold, the level of resistance ([4]; I84V with addition of V82F) was “up to 20 fold” and the “change in drug susceptibility” value ([4]; M46I, L63P, A71V introduced into wild-type NL4-3) was “did not result in significant changes in drug susceptibility”.
With `Cc1c(O)cccc1C(=O)N[C@@H](CSc1ccccc1)[C@H](O)CN1C[C@H]2CCCC[C@H]2C[C@H]1C(=O)NC(C)(C)C` [nelfinavir] the “change … to wild type control RTV” value ([1]; L63P-N88S-RTV) was “decreased susceptibility”, the “change … to wild type control RTV” value ([1]; L63P-V77I-N88S-RTV) was “decrease in susceptibility; also recorded: resistance” and the “change … to wild type control RTV” value ([1]; L63P-V77I-RTV) was “slight decrease in susceptibility”. For the same compound, the “change … to wild type control RTV” value ([1]; M46L-L63P-N88S-RTV) was “decrease in susceptibility”, the “change … to wild type control RTV” value ([1]; M46L-L63P-V77I-N88S-RTV) was “decrease in susceptibility” and the “change … to wild type control RTV” value ([1]; N88S-RTV) was “slightly less susceptible”. For the same compound, the “change in susceptibility” value ([2]; patient sample RTV-360) was “decrease”, the “change in susceptibility” value ([2]; patient sample RTV-627) was “decrease” and the “change in susceptibility” value ([2]; patient sample RTV-0732) was “decrease; also recorded: decreased susceptibility”. For the same compound, the “change in susceptibility” value ([2]; patient sample RTV-0910) was “decrease”, the “change in susceptibility” value ([2]; patient sample RTV-1208) was “decrease” and the “change in susceptibility” value ([2]; patient sample RTV-3542) was “decrease”. For the same compound, the “change in susceptibility” value ([2]; patient sample RTV-3654) was “decrease”, the “increase in 90% effective concentration” value ([4]; I84V and D30N single mutants and M46I/I84V double mutant of HIV-1 NL4-3) was “fivefold” and the “change in susceptibility” value ([4]; M46I, L63P, or A71V alone) was “no change in susceptibility”. The reduced susceptibility ([4]; variant P22, 22 serial passages of HIV-1 NL4-3) was “sevenfold” and the decreased susceptibility ([4]; variant P28, additional six passages) was 30 fold.
